Reference: ChEMBL document CHEMBL1201862, “PubChem BioAssay data set” (2004)
Calls of active or inactive are those of the source.

How the values were obtained:
[1] = tested on: Streptococcus sp. 'group A'; experiment: growth inhibition of control SK(-) GAS strain, dose response, counter-screen for streptokinase expression inhibitor project, luminescence, kanamycin, BacTiterGlo, confirmation (AID 1900); type: functional, organism-based
[2] = inhibitors of intracellular T. cruzi replication, confirmation, NIH3T3 host cells, beta-gal luminescence (AID 2044); type: functional, cell-based;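 also: intracellular parasites grown in NIH/3T3 mouse fibroblasts as host cells; luminescent beta-galactosidase reporter signal from transgenic T. cruzi replicating inside host cells; inhibitors lower the luminescence signal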
Streptokinase A = target: T1, Streptokinase A (Streptococcus pyogenes serotype M1, UniProt P10520); experiment: S. pyogenes streptokinase expression inhibitors, potency, dose response, plasminogen activation absorbance, OD405 (AID 1914); type: functional, Streptococcus pyogenes M1 GAS;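 also: secreted streptokinase activity via plasminogen activation per viability signal from cell pellet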
T1 sequence (P10520 whole entry): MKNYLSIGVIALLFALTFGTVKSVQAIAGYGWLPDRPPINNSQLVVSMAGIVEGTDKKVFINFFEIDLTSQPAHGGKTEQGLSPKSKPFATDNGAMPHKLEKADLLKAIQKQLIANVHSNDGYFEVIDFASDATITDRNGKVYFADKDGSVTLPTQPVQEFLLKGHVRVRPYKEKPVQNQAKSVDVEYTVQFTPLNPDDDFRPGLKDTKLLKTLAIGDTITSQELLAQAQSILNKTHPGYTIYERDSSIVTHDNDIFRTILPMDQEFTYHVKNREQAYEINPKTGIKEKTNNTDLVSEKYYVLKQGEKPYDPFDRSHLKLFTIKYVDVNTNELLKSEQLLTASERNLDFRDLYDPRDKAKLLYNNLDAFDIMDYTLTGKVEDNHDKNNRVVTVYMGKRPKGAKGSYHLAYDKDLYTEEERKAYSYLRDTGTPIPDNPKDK

[3] = target: T2, Heat shock factor protein 1 (Mus musculus, UniProt P38532); experiment: inhibition of MG132-induced HSE-luciferase signal, confirmation, cell-based, NIH3T3, luminescence, dose retest (AID 2382); type: functional;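 also: NIH3T3 fibroblasts with HSF1-driven luciferase reporter stressed by proteasome inhibitor MG132; luminescence from HSF1-driven luciferase expression after 8 hours of MG132 stress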
T2 sequence (P38532 whole entry): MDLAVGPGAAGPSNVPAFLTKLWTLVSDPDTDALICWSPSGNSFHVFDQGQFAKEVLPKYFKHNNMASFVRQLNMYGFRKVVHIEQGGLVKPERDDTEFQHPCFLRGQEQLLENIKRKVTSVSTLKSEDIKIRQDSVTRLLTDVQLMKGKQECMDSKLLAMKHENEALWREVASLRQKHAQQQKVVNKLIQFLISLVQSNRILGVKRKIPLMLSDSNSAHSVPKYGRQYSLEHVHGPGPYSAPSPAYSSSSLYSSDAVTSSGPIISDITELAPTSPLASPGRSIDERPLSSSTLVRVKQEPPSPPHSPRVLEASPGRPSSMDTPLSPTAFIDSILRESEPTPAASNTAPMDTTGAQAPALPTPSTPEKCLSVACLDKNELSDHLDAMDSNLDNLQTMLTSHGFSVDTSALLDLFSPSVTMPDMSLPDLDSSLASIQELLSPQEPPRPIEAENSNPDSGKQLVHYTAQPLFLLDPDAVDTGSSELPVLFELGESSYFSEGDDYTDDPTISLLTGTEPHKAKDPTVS

[4] = cytotoxicity toward NIH3T3 fibroblasts, dose response, counter-screen, cell-based, ATP luminescence, mouse fibroblasts (AID 2010); type: functional;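 also: cells exposed to compound for about 90 hours before reading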
[5] = target: T3, DNA repair protein RAD52 homolog (Homo sapiens, UniProt P43351); type: functional, biochemical
T3 sequence (P43351 whole entry): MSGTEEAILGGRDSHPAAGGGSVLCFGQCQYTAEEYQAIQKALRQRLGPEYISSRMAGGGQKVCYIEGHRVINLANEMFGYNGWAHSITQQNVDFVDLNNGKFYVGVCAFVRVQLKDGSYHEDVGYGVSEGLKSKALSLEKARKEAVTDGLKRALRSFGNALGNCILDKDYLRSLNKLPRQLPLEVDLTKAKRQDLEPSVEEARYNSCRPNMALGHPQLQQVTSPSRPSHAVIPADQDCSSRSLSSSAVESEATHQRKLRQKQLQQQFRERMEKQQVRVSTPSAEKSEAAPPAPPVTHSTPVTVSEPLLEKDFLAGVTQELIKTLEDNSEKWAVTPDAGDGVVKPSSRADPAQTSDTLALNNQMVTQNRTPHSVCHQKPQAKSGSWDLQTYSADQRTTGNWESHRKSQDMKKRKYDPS

Streptococcus = experiment: Group A Streptococcus viability loss, dose response, counter-screen for streptokinase expression inhibitor project, luminescence, BacTiterGlo (AID 1915); type: functional, organism-based;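 also: potency for reduction of bacterial viability or growth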
[6] = Luminescence Cell-Based Dose Response HTS to Identify Inhibitors of 5'UTR Stem-Loop Driven Prion Protein mRNA Translation in H4 Neuroglioblastoma Cells. [Related pubchem assays: 1827 (Project Summary), 1813 (Primary HTS)]; type: functional
[7] = inhibitors of firefly luciferase expression or activity, dose response, H4 neuroglioma cells, luminescence (AID 1990); type: functional, cell-based
[8] = inhibitors of SNCA 5'UTR-driven reporter translation, confirmation, H4 neuroglioma cells, luminescence (AID 1988); type: functional, cell-based
[9] = inhibitors of clade B AD8 Env fusion, dose response, cell-based, cherry-pick (AID 652062); type: functional;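 also: luciferase signal from cell-cell fusion driven by HIV-1 clade B AD8 Env; potency is for inhibitors of fusion seen as a drop in luminescence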
[10] = target: T4, Corticotropin-releasing factor receptor 2/Corticotropin-releasing factor-binding protein (Homo sapiens, UniProt P24387+Q13324); experiment: activators of CRF receptor 2 with binding protein – uHTS hits, confirmation (AID 602473); type: functional; settings: read-out: EC50_Mean
T4 sequence (Q13324 whole entry): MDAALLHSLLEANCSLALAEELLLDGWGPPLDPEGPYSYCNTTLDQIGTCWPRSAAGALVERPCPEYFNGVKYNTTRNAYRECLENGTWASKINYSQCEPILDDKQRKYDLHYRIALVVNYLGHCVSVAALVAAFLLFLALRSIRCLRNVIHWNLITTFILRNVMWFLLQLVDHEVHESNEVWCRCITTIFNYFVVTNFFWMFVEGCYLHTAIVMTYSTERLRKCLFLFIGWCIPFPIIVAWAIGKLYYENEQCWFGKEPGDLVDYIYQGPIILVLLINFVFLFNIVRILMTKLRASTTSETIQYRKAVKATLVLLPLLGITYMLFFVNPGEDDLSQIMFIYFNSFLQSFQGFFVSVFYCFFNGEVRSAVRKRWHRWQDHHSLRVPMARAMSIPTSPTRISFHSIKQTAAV
T4 sequence (P24387 whole entry): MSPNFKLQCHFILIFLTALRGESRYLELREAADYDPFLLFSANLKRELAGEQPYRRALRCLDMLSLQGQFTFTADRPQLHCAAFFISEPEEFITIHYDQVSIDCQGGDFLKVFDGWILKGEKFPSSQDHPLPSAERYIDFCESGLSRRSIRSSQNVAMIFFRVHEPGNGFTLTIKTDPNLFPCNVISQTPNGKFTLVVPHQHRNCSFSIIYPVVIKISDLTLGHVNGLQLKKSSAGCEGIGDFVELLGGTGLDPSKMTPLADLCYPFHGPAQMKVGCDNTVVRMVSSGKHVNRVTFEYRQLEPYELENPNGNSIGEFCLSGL

[11] = target: T4, Corticotropin-releasing factor receptor 2/Corticotropin-releasing factor-binding protein; experiment: Dose Response confirmation of uHTS hits for small molecule antagonists of the CRF-binding protein and CRF-R2 receptor complex.; type: functional; settings: read-out: IC50_Mean
[12] = CEM21 lymphoblast cell cytotoxicity, dose response, cytotoxicity control for viral fusion inhibitor project, CellTiter-Glo luminescence, cherry-picked (AID 652042); type: functional, cell-based;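 also: potency for signal decrease meaning cytotoxicity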
Prothrombin = Prothrombin (Homo sapiens, UniProt P00734); experiment: Thrombin 1536 HTS Dose Response Confirmation. [Related pubchem assays: 1046 (Thrombin 1536 HTS; hits were confirmed in this assay)]; type: functional
[13] = inhibitors of HIV Env-driven cell fusion, dose response, cherry-pick (AID 652057); type: functional, cell-based
[14] = ZM109 Env clade C HIV-1 fusion inhibitors, dose response, HeLa effector, CEM target cells, luciferase, cherry-pick (AID 652058); type: functional, cell-based
[15] = off-target signal loss in HeLa-CEM21 co-culture – HeLa F-luc CTL cells, cherry-picked, counter-screen for HIV-1 Env fusion inhibitor project, dose response (AID 652040); type: functional, cell-based;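 also: potency for signal decrease marking cytotoxic or nonspecific inhibition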
[16] = P. falciparum 3D7-ScDHODH growth inhibitors, dose response, SYBR Green, dry powder samples (AID 1159570); type: functional, cell-based;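 also: parasite growth measured after 72 hours of compound exposure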
[17] = P. falciparum ATP4 D1247Y mutant growth inhibitors, dose response, NITD609-resistant line, SYBR Green, dry powder (AID 1159571); type: functional, cell-based;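 also: parasites synchronized at ring stage by sorbitol before testing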
[18] = P. falciparum Dd2 growth inhibitors, dose response, SYBR Green, dry powder samples (AID 1159566); type: functional, cell-based;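 also: potency for growth inhibition with lower SYBR green DNA signal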
[19] = P. falciparum Dd2 growth inhibitors, dose response, SYBR Green, cherry-picked samples (AID 1159567); type: functional, cell-based
[20] = target: 5-hydroxytryptamine receptor 2A (Mus musculus, UniProt P35363); type: functional, cell-based;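 also: CHO-K1 cells with tagged receptor and beta-arrestin; agonist potency measured as compound-induced activation of the receptor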
Mu-type opioid receptor = Mu-type opioid receptor (Homo sapiens, UniProt P35372); type: functional, cell-based;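 also: U2OS cells with beta-arrestin recruitment to OPRM1 by beta-gal complementation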
[21] = intracellular Trypanosoma cruzi inhibitors in host cells – cell-based, plate reader, cherry-pick samples, set 3, dose response (AID 651818); type: functional;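 also: compounds incubated with infected cells for about four days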
[22] = Luminescence Cell-Based Dose Retest to Confirm Inhibitors of Cancer Stem Cells. [Related pubchem assays (depositor defined):AID2717, AID2721]; type: functional; settings: Homo sapiens
[23] = target: Disintegrin and metalloproteinase domain-containing protein 17 (Homo sapiens, UniProt P78536); experiment: exosite inhibitors of ADAM17, dose response, biochemical (AID 743260)
[24] = cytotoxicity toward DRD oncogenic fibroblasts, dose response, cell-based, non-viral oncogenic, luminescence (AID 1934); type: functional; settings: Homo sapiens
BJ [25] = experiment: cytotoxicity toward Ras-transformed BJeLR fibroblasts, dose response, cell-based, alamar blue fluorescence, cherrypicked samples (AID 2631); type: functional; settings: Homo sapiens;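 also: confirmatory dose-response assay in RAS-dependent BJ fibroblasts engineered with TERT, LT and ST, with cytotoxicity read by fluorescence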
BJ [26] = experiment: cells; type: functional, cell-based; settings: Homo sapiens
BJ [27] = experiment: cytotoxicity toward BJ-TERT-LT-ST fibroblasts, dose response, cell-based, RAS-independent, luminescence (AID 1935); type: functional; settings: Homo sapiens;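 also: BJ fibroblasts immortalized with TERT plus LT and ST oncogenes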
[28] = ADAM10 protease inhibitors, dose response, selectivity assay for ADAM17 exosite inhibitor project, biochemical, FRET peptide substrate, recombinant human ADAM10 (AID 743259);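 also: ADAM10 enzyme cleaving a FRET peptide substrate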
BJ [29] = experiment: cytotoxicity toward BJ-TERT fibroblasts, dose response, cell-based, RAS-independent, luminescence (AID 1933); type: functional; settings: Homo sapiens
Vero = experiment: cells; type: functional; settings: Chlorocebus sabaeus

Sequence of Disintegrin and metalloproteinase domain-containing protein 17 (P78536 whole entry, the tested form may be a part): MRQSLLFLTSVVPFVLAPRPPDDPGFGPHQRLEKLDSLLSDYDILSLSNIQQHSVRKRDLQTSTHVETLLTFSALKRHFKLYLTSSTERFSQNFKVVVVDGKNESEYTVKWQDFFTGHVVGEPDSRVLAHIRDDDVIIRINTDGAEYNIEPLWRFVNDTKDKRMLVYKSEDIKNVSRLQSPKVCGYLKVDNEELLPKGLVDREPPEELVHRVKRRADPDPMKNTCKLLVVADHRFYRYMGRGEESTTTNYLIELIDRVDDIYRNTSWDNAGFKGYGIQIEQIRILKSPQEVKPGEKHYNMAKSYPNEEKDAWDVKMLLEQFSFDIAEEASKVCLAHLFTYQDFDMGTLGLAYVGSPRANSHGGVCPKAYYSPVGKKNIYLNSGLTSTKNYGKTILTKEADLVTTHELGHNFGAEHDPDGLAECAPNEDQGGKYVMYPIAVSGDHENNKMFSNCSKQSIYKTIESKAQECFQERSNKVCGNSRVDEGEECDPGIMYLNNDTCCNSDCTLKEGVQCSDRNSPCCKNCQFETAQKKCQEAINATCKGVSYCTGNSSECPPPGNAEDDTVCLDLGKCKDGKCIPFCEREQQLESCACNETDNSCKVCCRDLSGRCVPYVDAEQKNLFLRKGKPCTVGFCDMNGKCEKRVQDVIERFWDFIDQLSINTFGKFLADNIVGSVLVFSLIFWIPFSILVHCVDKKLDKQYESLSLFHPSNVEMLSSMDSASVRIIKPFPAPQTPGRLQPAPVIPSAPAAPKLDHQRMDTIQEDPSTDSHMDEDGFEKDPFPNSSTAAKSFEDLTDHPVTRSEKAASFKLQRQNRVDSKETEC
Sequence of Mu-type opioid receptor (P35372 whole entry): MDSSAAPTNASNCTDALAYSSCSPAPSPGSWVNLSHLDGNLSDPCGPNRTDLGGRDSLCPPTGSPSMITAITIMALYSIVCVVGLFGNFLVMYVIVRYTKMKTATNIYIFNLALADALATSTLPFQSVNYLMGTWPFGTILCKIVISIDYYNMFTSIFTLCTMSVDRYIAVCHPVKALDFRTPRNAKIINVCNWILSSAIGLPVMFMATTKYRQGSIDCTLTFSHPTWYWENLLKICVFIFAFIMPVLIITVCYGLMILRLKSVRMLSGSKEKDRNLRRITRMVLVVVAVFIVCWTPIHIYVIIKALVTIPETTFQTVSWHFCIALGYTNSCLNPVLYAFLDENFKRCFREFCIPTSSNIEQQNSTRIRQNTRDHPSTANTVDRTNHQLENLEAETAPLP
Sequence of 5-hydroxytryptamine receptor 2A (P35363 whole entry): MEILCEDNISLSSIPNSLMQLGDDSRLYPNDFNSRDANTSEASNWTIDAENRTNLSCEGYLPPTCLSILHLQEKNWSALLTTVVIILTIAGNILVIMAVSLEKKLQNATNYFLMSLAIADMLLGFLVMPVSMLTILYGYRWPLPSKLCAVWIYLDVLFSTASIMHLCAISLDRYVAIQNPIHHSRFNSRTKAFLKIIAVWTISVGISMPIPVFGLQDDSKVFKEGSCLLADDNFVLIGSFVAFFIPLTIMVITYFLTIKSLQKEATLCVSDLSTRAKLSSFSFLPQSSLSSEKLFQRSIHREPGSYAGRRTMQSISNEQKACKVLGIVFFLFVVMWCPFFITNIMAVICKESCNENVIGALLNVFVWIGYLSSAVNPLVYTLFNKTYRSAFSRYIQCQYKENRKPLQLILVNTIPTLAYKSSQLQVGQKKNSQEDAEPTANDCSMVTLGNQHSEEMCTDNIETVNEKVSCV

## Cc1ccc2nc(N(CCCN(C)C)C(=O)c3ccc(S(=O)(=O)N4CCCCCC4)cc3)sc2c1
[1]
  EC50: > 150 µM (not active)
[2]
  EC50: 0.125 µM (active)
Streptokinase A
  EC50: > 150 µM (not active)
[3]
  EC50: 109 µM (active)
[4]
  EC50: > 60 µM (not active)
[5]
  AC50: 30.7 µM (active)
Streptococcus
  EC50: > 150 µM (not active)

## COC(=O)c1ccc(C(=O)NC2CCCc3c2cnn3-c2ccc(C)c(C)c2)cc1 (stereo not given)
[6]
  EC50: > 120 µM (not active)
[7]
  EC50: 8.89 µM (inconclusive)
[8]
  EC50: 0.997 µM (active)
[9]
  AC50: 18.9 µM (active)
[10]
  EC50: > 53 µM (inactive)
[11]
  IC50: > 47.1 µM (inactive)
[12]
  AC50: 19.4 µM (active)

## COc1cccc2cc(C(=O)NCC3CCCO3)c(=O)oc12 (stereo not given)
Prothrombin
  IC50: > 50 µM (not active)

## COC(=O)[C@@]12C[C@@H](CC(=O)NCc3cccc(C(F)(F)F)c3)C(=O)N(Cc3ccco3)C1=CCC(C)(C)C2
[13]
  AC50: 4.26 µM (active)
[9]
  AC50: 20.9 µM (active)
[14]
  AC50: 8.24 µM (active)
[15]
  AC50: 8.92 µM (active)
[12]
  AC50: 50 µM (active)

## O=C(c1ccc(F)cc1)N1CC(=O)N2[C@H](C1)[C@@H](c1ccc(-c3cccnc3)cc1)[C@@H]2CO
[16]
  AC50: 0.786 µM (active)
[17]
  AC50: 0.542 µM (active)
[18]
  AC50: 0.42 µM (active)
[19]
  AC50: 0.439 µM (active)

## O=C(NCCN1CCN(c2ccccc2F)CC1)C1CCCN(S(=O)(=O)c2c[nH]cn2)C1 (stereo not given)
[20]
  EC50: 0.895 µM (active)
Mu-type opioid receptor
  EC50: 92.5 µM (inactive)

## O=S(=O)(c1ccc(OCC(O)CN2CCN(c3ccccc3)CC2)cc1)N1CCOCC1 (stereo not given)
[20]
  EC50: 0.481 µM (active)
Mu-type opioid receptor
  EC50: 92.4 µM (inactive)

## CSc1nc(-c2ccco2)nn1C(=O)c1ccccc1
Prothrombin
  IC50: 0.082 µM (active)

## C[C@@H]1CN([C@@H](C)CO)C(=O)c2cccc(NS(=O)(=O)c3ccc(F)cc3)c2O[C@@H]1CN(C)Cc1ccc(-c2ccccc2)cc1
[13]
  AC50: 22.4 µM (active)
[21]
  AC50: 3.81 µM (active)
[14]
  AC50: 26.5 µM (active)
[12]
  AC50: 48.1 µM (active)

## CN(C)CCCn1c(=S)[nH]c2sc3c(c2c1=O)CCCC3
[5]
  AC50: 5.83 µM (active)
[22]
  AC50: > 195 µM (inactive)

## CN(C)S(=O)(=O)c1ccc(Cl)c(NC(=O)CN2CCc3ccccc3C2)c1
[20]
  EC50: 1.75 µM (active)
Mu-type opioid receptor
  EC50: 92.5 µM (inactive)

## COc1cc(OC)cc(-c2cn[nH]c2N)c1
[23]
  IC50: > 69.5 µM (inactive)

## CCCCc1nc2ccccc2c(NC(=O)CNC(C)(C)C)c1CCC
Prothrombin
  IC50: > 50 µM (not active)

## CCCN1C/C(=C/c2ccc3c(c2)OCO3)C(=O)/C(=C/c2ccc3c(c2)OCO3)C1
[24]
  EC50: 4.99 µM (active)
[23]
  IC50: 19.6 µM (inactive)
BJ [25]
  EC50: 0.582 µM (inconclusive)
BJ [26]
  EC50: 14.9 µM (inconclusive)
BJ [27]
  EC50: 2.94 µM (inconclusive)
[28]
  IC50: > 69.5 µM (inactive)
BJ [29]
  EC50: 4.04 µM (inconclusive)
Vero
  CC50: 9.59 µM (active)
[22]
  AC50: 0.766 µM (active)

## COc1cc(OC)cc(-c2c[nH]nc2N)c1
[28]
  IC50: > 69.5 µM (inactive)

## Cc1cc(Oc2ccccc2)nc(SCC(=O)Nc2ccc(Cl)c(Cl)c2)n1
[23]
  IC50: > 69.5 µM (inactive)
[28]
  IC50: 10.4 µM (inactive)

## Cc1cccc(C(=N)NOC(=O)N2CCOCC2)c1
[2]
  EC50: 2.63 µM (active)
[23]
  IC50: > 69.5 µM (inactive)
[4]
  EC50: > 60 µM (not active)
[28]
  IC50: > 69.5 µM (inactive)
